Assay results taken from ChEMBL document CHEMBL5030545, “Discovery of clinical candidate Sivopixant (S-600918): Lead optimization of dioxotriazine derivatives as selective P2X3 receptor antagonists” (Bioorg Med Chem Lett, 2021).

Legend:
[1] = Ratio of free plasma concentration in rat measured after 3 hrs to IC50 of P2X3 (unknown origin); format: ADME
[2] = Oral bioavailability in rat at 1 mg/kg administered as cassette dose; format: ADME, organism-based; settings: in vivo
[3] = Ratio of plasma concentration in rat measured after 3 hrs to IC50 of P2X3 (unknown origin); format: ADME; settings: in vivo
[4] = Free plasma concentration in rat plasma at 1 mg/kg administered as cassette dose; format: ADME, organism-based; settings: in vivo
[5] = Protein binding in rat plasma assessed as unbound fraction at 1 mg/kg administered as cassette dose; format: ADME, organism-based
[6] = test system: Rattus norvegicus; test: Analgesic activity in rat model of partial sciatic nerve ligation-induced neuropathic pain assessed as reversal of allodynia at 3 mg/kg, po measured after 3 hrs relative to control; format: functional
[7] = target: T1, P2X purinoceptor 3 (Homo sapiens, UniProt P56373); test: Antagonist activity at P2X3 receptor (unknown origin)
T1 sequence (P56373 whole entry): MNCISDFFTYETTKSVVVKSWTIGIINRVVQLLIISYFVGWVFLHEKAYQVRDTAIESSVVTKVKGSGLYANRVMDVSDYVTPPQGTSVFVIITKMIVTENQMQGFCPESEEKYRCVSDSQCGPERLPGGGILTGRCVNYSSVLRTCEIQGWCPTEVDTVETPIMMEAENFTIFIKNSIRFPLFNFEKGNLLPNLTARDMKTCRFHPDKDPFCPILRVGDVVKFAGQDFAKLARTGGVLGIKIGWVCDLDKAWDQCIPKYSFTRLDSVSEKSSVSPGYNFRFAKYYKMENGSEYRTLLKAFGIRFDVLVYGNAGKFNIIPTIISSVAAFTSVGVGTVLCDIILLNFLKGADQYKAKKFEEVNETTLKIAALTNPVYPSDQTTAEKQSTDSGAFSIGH

Ratio [1] | bioavailability [2] [%] | Ratio [3] | Cp(f) [4] [nM] | fraction unbound [5] | IC50 [7] [nM] | SMILES | Activity [6] [%]
2.91 | 88.8 | 42.8 | 827 | 0.068 |  | CC(C)Oc1ccc(/N=c2\[nH]c(=O)n(C[C@H](C)C(=O)O)c(=O)n2Cc2ccc(Cl)cc2)cc1 | 2
1.16 | 102 | 57.8 | 924 | 0.02 |  | Cc1cc(/N=c2\[nH]c(=O)n(C[C@H](C)C(=O)O)c(=O)n2Cc2ccc(Cl)cc2)ccc1OC(C)C | 13
0.52 | 82.4 | 171.8 | 1537 | 0.003 |  | CC(C)Oc1ccc(/N=c2\[nH]c(=O)n(C[C@H](C)C(=O)O)c(=O)n2Cc2ccc(Cl)cc2)cc1Cl | 26
0.2 | 48.1 | 204.9 | 3095 | 0.001 |  | CC(C)Oc1ccc(Nc2nc(=O)n(CCO)c(=O)n2Cc2ccc(Cl)cc2)cc1Cl | 
1.31 | 96 | 145.2 | 1126 | 0.009 | 7.8 | CC(C)Oc1ccc(/N=c2\[nH]c(=O)n(C[C@H](C)C(=O)O)c(=O)n2Cc2ccc(Cl)cc2)cc1F | 23
0.27 | 54.8 | 89.2 | 597 | 0.003 | 6.7 | CC(C)Oc1ccc(Nc2nc(=O)n(CC(CO)CO)c(=O)n2Cc2ccc(Cl)cc2)cc1Cl | 
1.38 | 73.1 | 98.9 | 692 | 0.014 |  | Cc1ccc(Cn2c(=O)n(C[C@H](C)C(=O)O)c(=O)[nH]/c2=N\c2ccc(OC(C)C)c(Cl)c2)cc1 | 3
0.24 | 43.2 | 119.4 | 1600 | 0.002 |  | CC(C)Oc1ccc(/N=c2\[nH]c(=O)n(CCCC(=O)O)c(=O)n2Cc2ccc(Cl)cc2)cc1Cl | 
0.31 | 36.2 | 103.5 | 711 | 0.003 | 6.9 | CC(C)Oc1ccc(Nc2nc(=O)n(CCCO)c(=O)n2Cc2ccc(Cl)cc2)cc1Cl | 
0.22 | 85.3 | 72.4 | 485 | 0.003 | 6.7 | CC(C)Oc1ccc(/N=c2\[nH]c(=O)n(CC(C)(C)C(=O)O)c(=O)n2Cc2ccc(Cl)cc2)cc1Cl | 
0.14 | 30.7 | 14.2 | 139 | 0.01 | 9.8 | Cc1ccc(Cn2c(=O)n(CC(C)(C)C(=O)O)c(=O)[nH]/c2=N\c2ccc(OC(C)C)c(Cl)c2)cc1 | 
 | 71.2 |  | 1267 | 0.003 |  | CC(C)Oc1ccc(Nc2nc(=O)n(CCC(=O)O)c(=O)n2Cc2ccc(Cl)cc2)cc1Cl | 6
0.59 | 108 | 294.8 | 3655 | 0.002 |  | Cc1ccc(Cn2c(=O)n(CCCC(=O)O)c(=O)[nH]/c2=N\c2ccc(OC(C)C)c(Cl)c2)cc1 | 20
0.12 | 108 | 62.2 | 1001 | 0.002 |  | CC(C)Oc1ccc(/N=c2\[nH]c(=O)n(C[C@@H](C)C(=O)O)c(=O)n2Cc2ccc(Cl)cc2)cc1Cl | 
1.02 | 56.5 | 56.2 | 330 | 0.018 | 5.8 | C[C@@H](Cn1c(=O)[nH]/c(=N\c2ccc(Oc3cnccn3)cc2)n(Cc2ccc(Cl)cc2)c1=O)C(=O)O | 
0.46 | 54.3 | 30.4 | 462 | 0.015 |  | C[C@@H](Cn1c(=O)[nH]/c(=N\c2ccc(OC3CCC3)cc2)n(Cc2ccc(Cl)cc2)c1=O)C(=O)O | 
0.79 | 45.6 | 37.6 | 643 | 0.021 |  | C[C@@H](Cn1c(=O)[nH]/c(=N\c2ccc(OCC3CC3)cc2)n(Cc2ccc(Cl)cc2)c1=O)C(=O)O | 
 |  |  |  |  | 8.6 | C[C@@H](Cn1c(=O)[nH]/c(=N\c2ccc(Oc3cccnc3)cc2)n(Cc2ccc(Cl)cc2)c1=O)C(=O)O | 
 | 82.4 |  | 473 | 0.011 |  | C[C@@H](Cn1c(=O)[nH]/c(=N\c2ccc(Oc3ccc(F)cn3)cc2)n(Cc2ccc(Cl)cc2)c1=O)C(=O)O | 
0.29 | 48.7 | 11.5 | 253 | 0.025 |  | CC(C)COc1ccc(/N=c2\[nH]c(=O)n(C[C@H](C)C(=O)O)c(=O)n2Cc2ccc(Cl)cc2)cc1 | 
 | 60 |  | 456 | 0.007 |  | C[C@@H](Cn1c(=O)[nH]/c(=N\c2ccc(Oc3cccc(F)n3)cc2)n(Cc2ccc(Cl)cc2)c1=O)C(=O)O | 
 |  |  |  |  | 5.2 | C[C@@H](Cn1c(=O)[nH]/c(=N\c2ccc(Oc3ccncc3)cc2)n(Cc2ccc(Cl)cc2)c1=O)C(=O)O | 
0.2 | 40.2 | 48.9 | 240 | 0.004 | 4.9 | CC.C[C@@H](Cn1c(=O)[nH]/c(=N\c2ccc(Oc3cc(F)ccn3)cc2)n(Cc2ccc(Cl)cc2)c1=O)C(=O)O | 
 | 41.4 |  | 319 | 0.006 |  | C[C@@H](Cn1c(=O)[nH]/c(=N\c2ccc(Oc3nccs3)cc2)n(Cc2ccc(Cl)cc2)c1=O)C(=O)O | 
 | 74.3 |  | 529 | 0.02 |  | C[C@@H](Cn1c(=O)[nH]/c(=N\c2ccc(Oc3cncc(F)c3)cc2)n(Cc2ccc(Cl)cc2)c1=O)C(=O)O | 
0.12 | 30.2 | 8.3 | 64 | 0.014 | 7.7 | C[C@@H](Cn1c(=O)[nH]/c(=N\c2ccc(Oc3cccnn3)cc2)n(Cc2ccc(Cl)cc2)c1=O)C(=O)O | 

SMILES | Ratio [1] | bioavailability [2] [%] | Ratio [3] | Cp(f) [4] [nM] | fraction unbound [5] | IC50 [7] [nM] | Activity [6] [%]
CC(C)Oc1ccc(/N=c2\[nH]c(=O)n(C[C@@H](O)CO)c(=O)n2Cc2ccc(Cl)cc2)cc1Cl | 0.28 | 63 | 284.5 | 1627 | 0.001 | 5.7 | 
CC(C)Oc1ccc(/N=c2\[nH]c(=O)n(C[C@H](O)CO)c(=O)n2Cc2ccc(Cl)cc2)cc1Cl |  |  |  |  |  | 10.4 | 
